Results published in ChEMBL document CHEMBL1201862, “PubChem BioAssay data set” (2004).
Where “and” joins values, the source holds several entries; their conditions need not be identical. Equal entries are not always repeated.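 Where inhibition never reached the appropriate level, the endpoint shown equals the highest concentration tested. Otherwise, values were interpolated linearly from a five-concentration, 48-hour dose response in 96-well plates. At the GI50, growth is halved.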 Calls of active or inactive are those of the source. Rule as the data show it: active = GI50 up to about 1.1 µM and inactive = higher.

Columns and labels:
Assay in all cases: inhibition of tumour cell growth, NCI panel, 48 h
SF-539 = system: SF-539
TK-10 = system: TK-10
RPMI-8226 = system: RPMI-8226
SK-MEL-2 = system: SK-MEL-2
CAKI-1 = system: CAKI-1
K562 = system: K562
EKVX = system: EKVX
NCI-H226 = system: NCI-H226
786-0 = system: 786-0
MOLT-4 = system: MOLT-4
SK-MEL-5 = system: SK-MEL-5
NCI/ADR-RES = system: NCI/ADR-RES
OVCAR-5 = system: OVCAR-5
NCI-H522 = system: NCI-H522
U-251 = system: U-251
OVCAR-8 = system: OVCAR-8
SF-295 = system: SF-295
SW-620 = system: SW-620
SNB-75 = system: SNB-75
BT-549 = system: BT-549
CCRF-CEM = system: CCRF-CEM
MDA-MB-231 = system: MDA-MB-231
SF-268 = system: SF-268
SK-MEL-28 = system: SK-MEL-28
HL-60 = system: HL-60
SK-OV-3 = system: SK-OV-3
SR = system: SR
Hs-578T = system: Hs-578T
COLO 205 = system: COLO 205
LOX IMVI = system: LOX IMVI
MDA-N = system: MDA-N
SNB-19 = system: SNB-19
KM12 = system: KM12
HCT-116 = system: HCT-116
PC-3 = system: PC-3
M14 = system: M14
RXF 393 = system: RXF 393
Malme-3M = system: Malme-3M
HCT-15 = system: HCT-15
IGROV-1 = system: IGROV-1
HOP-92 = system: HOP-92
UO-31 = system: UO-31
UACC-62 = system: UACC-62
NCI-H460 = system: NCI-H460
OVCAR-3 = system: OVCAR-3
MCF7 = system: MCF7
OVCAR-4 = system: OVCAR-4
T47D = system: T47D
SN12C = system: SN12C
ACHN = system: ACHN
DU-145 = system: DU-145
HOP-62 = system: HOP-62
A498 = system: A498
NCI-H23 = system: NCI-H23
MDA-MB-435 = system: MDA-MB-435
HT-29 = system: HT-29
A549 = system: A549

`Cc1ccc(OCC2OC(n3cnc4c(Cl)ncnc43)CC2Oc2ccc(C)cc2)cc1` (configuration not stated) was tested. Which GI50 (SF-539) did it give?
Its GI50 is 22.9 µM (inactive) and 15.8 µM (inactive).

What about the GI50 (TK-10) of the same compound?
The GI50 was 30.5 µM (inactive) and 45 µM (inactive).

And the GI50 (RPMI-8226)?
The GI50 was 2.69 µM (inactive) and 5.31 µM (inactive).

What about the GI50 (SK-MEL-2) of the same compound?
The GI50 was 12.4 µM (inactive) and 17.3 µM (inactive).

What about the GI50 (CAKI-1) of the same compound?
The GI50 was 2.21 µM (inactive) and 1.94 µM (inactive).

What about the GI50 (K562) of the same compound?
Its GI50 is 4.92 µM (inactive) and 2.99 µM (inactive).

And the GI50 (EKVX)?
Its GI50 is 3.06 µM (inactive) and 2.84 µM (inactive).

And the GI50 (NCI-H226)?
Its GI50 is 11.9 µM (inactive) and 20.8 µM (inactive).

What about the GI50 (786-0) of the same compound?
The GI50 was 31.8 µM (inactive) and 17.4 µM (inactive).

And the GI50 (MOLT-4)?
The GI50 was 2.48 µM (inactive) and 2.49 µM (inactive).

And the GI50 (SK-MEL-5)?
Its GI50 is 15.4 µM (inactive) and 18.7 µM (inactive).

What about the GI50 (NCI/ADR-RES) of the same compound?
The GI50 was 12.4 µM (inactive) and 19.2 µM (inactive).

And the GI50 (OVCAR-5)?
The GI50 was 26.4 µM (inactive) and 24.9 µM (inactive).

And the GI50 (NCI-H522)?
The GI50 was 2.27 µM (inactive) and 1.71 µM (inactive).

And the GI50 (U-251)?
The GI50 was 1.97 µM (inactive) and 2.55 µM (inactive).

And the GI50 (OVCAR-8)?
Its GI50 is 8.93 µM (inactive) and 8.3 µM (inactive).

What about the GI50 (SF-295) of the same compound?
The GI50 was 20 µM (inactive) and 14.9 µM (inactive).

What about the GI50 (SW-620) of the same compound?
Its GI50 is 2.07 µM (inactive) and 3.43 µM (inactive).

And the GI50 (SNB-75)?
The GI50 was 26.1 µM (inactive) and 15.8 µM (inactive).

And the GI50 (BT-549)?
The GI50 was 20.2 µM (inactive) and 18.5 µM (inactive).

And the GI50 (CCRF-CEM)?
Its GI50 is 4.78 µM (inactive) and 5.09 µM (inactive).

And the GI50 (MDA-MB-231)?
The GI50 was 9.51 µM (inactive) and 5.35 µM (inactive).

And the GI50 (SF-268)?
The GI50 was 7.91 µM (inactive) and 4.74 µM (inactive).

And the GI50 (SK-MEL-28)?
Its GI50 is 1.71 µM (inactive) and 2.13 µM (inactive).

What about the GI50 (HL-60) of the same compound?
The GI50 was 2.29 µM (inactive) and 1.72 µM (inactive).

What about the GI50 (SK-OV-3) of the same compound?
Its GI50 is 29.8 µM (inactive) and 20 µM (inactive).

And the GI50 (SR)?
The GI50 was 2.66 µM (inactive) and 3.29 µM (inactive).

And the GI50 (Hs-578T)?
Its GI50 is 6.84 µM (inactive) and 4.7 µM (inactive).

Which results are given for `COC(=O)c1cc(NC(=O)c2cc(NC(=O)c3cc([N+](=O)[O-])cn3C)cn2C)cn1C`?
GI50 (SF-539): > 100 µM (inactive); GI50 (TK-10): 20.3 µM (inactive); GI50 (COLO 205): 44.4 µM (inactive); GI50 (LOX IMVI): 56.2 µM (inactive); GI50 (MDA-N): > 100 µM (inactive); GI50 (SNB-19): 59.6 µM (inactive); GI50 (RPMI-8226): 29.4 µM (inactive); GI50 (KM12): 64.1 µM (inactive); GI50 (SK-MEL-2): 80.2 µM (inactive); GI50 (CAKI-1): 69.2 µM (inactive); GI50 (HCT-116): 43.4 µM (inactive); GI50 (K562): 61.9 µM (inactive); GI50 (EKVX): 34.1 µM (inactive); GI50 (NCI-H226): > 100 µM (inactive); GI50 (786-0): > 100 µM (inactive); GI50 (MOLT-4): 29.8 µM (inactive); GI50 (PC-3): 94.2 µM (inactive); GI50 (M14): > 100 µM (inactive); GI50 (SK-MEL-5): 10.2 µM (inactive); GI50 (RXF 393): > 100 µM (inactive); GI50 (Malme-3M): 26.9 µM (inactive); GI50 (NCI/ADR-RES): 61.4 µM (inactive); GI50 (HCT-15): 82 µM; GI50 (OVCAR-5): 81.1 µM (inactive); GI50 (IGROV-1): 0.0147 µM (active); GI50 (HOP-92): 14.3 µM (inactive); GI50 (U-251): 36.8 µM (inactive); GI50 (UO-31): 68.4 µM (inactive); GI50 (OVCAR-8): > 100 µM (inactive); GI50 (SF-295): 89.5 µM (inactive); GI50 (UACC-62): 55.6 µM (inactive); GI50 (NCI-H460): 40.3 µM (inactive); GI50 (SW-620): > 100 µM (inactive); GI50 (OVCAR-3): > 100 µM (inactive); GI50 (MCF7): > 100 µM (inactive); GI50 (SNB-75): > 100 µM (inactive); GI50 (OVCAR-4): 40 µM (inactive); GI50 (T47D): 12 µM (inactive); GI50 (SN12C): > 100 µM (inactive); GI50 (BT-549): > 100 µM (inactive); GI50 (ACHN): 66.1 µM (inactive); GI50 (CCRF-CEM): > 100 µM (inactive); GI50 (MDA-MB-231): 35.6 µM (inactive); GI50 (SF-268): > 100 µM (inactive); GI50 (SK-MEL-28): > 100 µM (inactive); GI50 (DU-145): > 100 µM (inactive); GI50 (HL-60): 86.5 µM (inactive); GI50 (HOP-62): > 100 µM (inactive); GI50 (A498): > 100 µM (inactive); GI50 (NCI-H23): 30.8 µM (inactive); GI50 (SK-OV-3): 49.4 µM (inactive); GI50 (MDA-MB-435): 98.6 µM (inactive); GI50 (HT-29): > 100 µM (inactive); GI50 (A549): > 100 µM (inactive)
